# Assay results from patent publication US12655472B2, “Microbe detection method using fish analysis” (priority 2020, dated 2026).
# Columns and labels:
# E. coli K-12 = assay: Antibiotic susceptibility evaluation through FISH analysis (ratio of test microorganisms after about 1 hour culturing); assay type: cell-based
# Procedure: (§1) In this example, a total of two experiments were conducted on each of E. coli K-12 bacteria as test microorganisms having antibiotic susceptibility, and E. coli ER7 bacteria as test microorganisms having antibiotic resistance, and each group was set to include E. faecalis bacteria having resistance to Cefotaxime.
# (§2) The number or ratio of initial microorganisms in the first microbial group, the second microbial group, and the third microbial group was set identically.
# (§3) In an embodiment, E. coli K-12 bacteria, antibiotic-resistant E. coli ER7 bacteria, and E. faecalis resistant to cefotaxime were used, and each strain was cultured up to OD 600=0.5 to obtain a sample containing the test microorganisms. On the other hand, after treating the sample with antibiotics, the amount of the test microorganisms was quantified by imaging at OD 600. In this case, the imaging process was performed by centrifugation at 3,000 g for 3 min, concentrating the sample 10-fold and fixing the same on a glass substrate coated with Vectabond.
# (§4) To fix bacterial samples, a 50:1 solution of acetone and Vectabond was dropped onto a sample dish. Next, the sample dish was incubated at room temperature for 5 minutes, and washed 2 to 3 times with tertiary water, and then the water was completely removed therefrom. Thereafter, the test microorganisms samples of Example 6 were dropped on the coated sample dish, and incubated at room temperature for 30 minutes, and the remaining sample was washed three times. Next, a 3.7% formaldehyde solution was dropped on the sample dish on which the sample was fixed, and then the fixation was performed for 30 minutes at room temperature. Afterwards, it was washed 2 to 3 times with nuclease-free tertiary water. […] Finally, after immersing the sample in a 2×SSC solution diluted with nuclease-free tertiary […], a fluorescence image of the sample was acquired using a confocal fluorescence microscope.
# E. faecalis = assay: as above; assay type: cell-based; conditions: first microbial group treated and cultured with antibiotics
# Procedure: as §1, §2, §3, §4
structure (smiles),measurement,setting,value
CO/N=C(\C(=O)N[C@@H]1C(=O)N2C(C(=O)O)=C(COC(C)=O)CS[C@H]12)c1csc(N)n1 [cefotaxime],number of population of E. coli K-12,"E. coli K-12; first microbial group treated and cultured with antibiotics, about 1 hour",rapidly reduced
same,ratio of E. coli and E. faecalis,"E. coli K-12; first microbial group, mixed E. coli and E. faecalis sample treated with antibiotic and cultured for 1 hour",ratio of E. coli and E. faecalis changed
same,growth of E. faecalis,E. faecalis,continued to grow
